The values that follow come from paper PMC9106797, “Formation and Identification of a 5-(Hydroxymethyl)-2-Furfural-Zingerone Condensate and Its Cytotoxicity in Caco-2 Cells” (Frontiers in Nutrition, 2022).

Values joined by “and” are separate entries in the source; they are usually repeats but may differ in a detail not shown here. Identical values can stand only once.

In one series the test system is FVB/N mice. Set-up: method as in PMID 22349055. The following applies: FVB/N mice, 31.25, 62.5, 125 and 250 mg SMF/kg; cited from earlier work.
Series [1] in a line: In vitro simulated digestion (mouth, gastric, intestinal stages), HPLC. The format is in vitro ADME. Particulars: for decrease of HMZ content after digestion: 37°C. Here is the method: The adduct was subjected to in vitro simulated digestion at three stages, namely, the mouth, gastric, and intestinal stages, to evaluate its stability ([28], [29]). Briefly, HMZ (2 mg) was dissolved in DMSO (200 μL), diluted with ultra-pure water to the final concentration of 0.5 mg/mL, and then mixed with 6 mL of SSF in a flask. The mixture was magnetically stirred at 100 r/min for 2 min at 37°C to mimic saliva digestion. Afterward, 10 mL of SGF was added to simulate the gastric phase, and the mixture was reacted for 2 h under the same condition. Subsequently, 20 mL of SIF was added for the simulation of intestinal digestion for another 2 h. Samples (100 μL) were withdrawn at the end of each stage of the digestion process for HPLC analysis. Each digestion process was repeated in triplicate, and the content of HMZ was calculated by referring to the calibration curve.

Series [2] is described as follows: Effect of reaction temperature on HMZ amount (one-factor-at-a-time, HPLC). Type of series: physicochemical. Particulars: temperature over 50°C, 3 h. As for the experimental part: A one-factor-at-a-time design was applied to estimate the effects of different reaction parameters on HMF elimination by ZGR, as well as the adduct formation between HMF and ZGR. ZGR/HMF in the molar ratio of 2: 1 was mixed in a three-necked flask and incubated at 40°C for different durations (0.5, 1.0, 1.5, 2.0, 2.5, and 3.0 h) to investigate the effect of reaction time. ZGR/HMF in the molar ratio of 2: 1 was mixed and reacted for 3 h at different temperature levels (20, 30, 40, 50, 60, and 70°C) to study the effect of temperature. In addition, temperature and reaction duration were kept constant at 40°C and 3 h, respectively, to evaluate the effect of different ZGR/HMF molar ratios (4: 1, 3: 1, 2: 1, 1: 1, and 1: 2). At the end of each reaction, 30 μL of the aqueous reaction mixture was diluted with methanol to a final volume of 500 μL for HPLC analysis. HMF and HMZ were quantified by comparing their peak areas to each standard curve.

Another series has as its system Caco-2 cells. Kind of series: Absorption of HMZ in Caco-2 cells (HPLC of treated solution). Type of series: in vitro ADME. The following applies: 2 h, 37°C. As for the experimental part: HMZ absorption was evaluated according to de Oliveira et al. with slight modifications ([32]). Briefly, Caco-2 cells were inoculated in 6-well plates at the density of 2 × 10^4 cells/well (2 mL) and cultured until 90% confluence at 37°C with 5% CO2. Then, the cells were washed thrice with 1 mL of HBSS. Another 1 mL of HBSS was added for further culture for 30 min. Ten microliters of HMZ solution (pH 7.4) at concentrations of 1–100 μM were added separately and cultivated for 2 h to allow the adduct solution to be absorbed by cells under certain condition (37°C, 5% CO2/95% air). The treated solution was transferred into Eppendorf tubes for HPLC analysis. The control of each sample under different concentrations was the respective sample without incubation, and each of the absorption rate of the adduct by Caco-2 cells was calculated as follows:
(1) Absorption rate (%) =S1−S2/S1× 100%
where S1 is the peak area of the control, and S2 is the peak area of the sample incubated for 2 h.

Series [3] is described as follows: Cell viability assay (CCK-8). The format is cell-based. The following applies: human, Caco-2 cells, read-out: IC50, cytotoxicity against Caco-2 cells; for IC50 at 24 h: 24 h incubation; for IC50 at 48 h: 48 h incubation. As for the experimental part:
The Caco-2 cell line (ATCC HTB-37) was obtained from the American Type Culture Collection (Rockville, MD, USA). Cells were cultivated by the method of Kosińska-Cagnazzo et al. ([30]) with slight modifications. Specifically, α-MEM medium supplemented with 10% FBS, 1% penicillin/streptomycin, and 1% NEAA was used to cultivate Caco-2 cells at 37°C and 5% (v/v) CO2 atmosphere. When the cells reached 80–90% confluence, they were detached with 0.25% trypsin-EDTA and further sub-cultured on fresh growth medium. Cells between passages 30 and 35 were used.
Cell viability was measured by the CCK-8 method as described by Zhao et al. ([31]) with modifications. Briefly, Caco-2 cells at a density of 2.5 × 10^4 cells/well were seeded into 96-well plates and maintained at 37°C under a humidified atmosphere containing 5% CO2 and 95% air for 24 h. Subsequently, the origin culture medium was removed, and different concentrations (2, 4, 8, 16, 32, and 64 mM) of HMZ and HMF were added. Three duplicate wells were set for each concentration. The cells were further incubated for 24 and 48 h, respectively. Then, 10 μL of CCK-8 solution was added into each well for 2 h, and the absorbance was read at 450 nm on a microplate reader (Multiskan, Thermo, USA).

On to `O=Cc1ccc(COS(=O)(=O)O)o1` [SMF, 5-sulfo-oxymethylfurfural], for which the liver toxicity entry with FVB/N mice is on record as “hepatic lesions”.

For `COc1cc(CCC(=O)/C=C/c2ccc(CO)o2)ccc1O` [HMZ], the “decrease of HMZ content after digestion” value is given as 14.19% in series [1] (after SGF (simulated gastric fluid), further 2 h); 24.06% in series [1] (after SIF (simulated intestinal fluid), further 2 h); 7.14% in series [1] (after SSF (simulated salivary fluid), 2 min). Besides, in series [1] (three digestion conditions), the “stability in simulated in vitro digestion” value is “moderate level”. Also, the “thermal stability in the reaction mixture” value in series [2] is reported as “appeared to degrade”. In addition, the absorption in the series on Caco-2 cells (HMZ 1 μM) was 0.61 ± 0.75 ×10^-5 μmol; in the series with Caco-2 cells (HMZ 4 μM) it was 2.85 ± 0.03 ×10^-5 μmol; in the series on Caco-2 cells (HMZ 20 μM), 11.22 ± 0.03 ×10^-5 μmol; with Caco-2 cells (HMZ 100 μM), 34.71 ± 0.17 ×10^-5 μmol. Also, the absorption rate in the series on Caco-2 cells (HMZ 1 μM) was 60.74% and 60.74 ± 7.51%; in the series with Caco-2 cells (HMZ 4 μM), 71.38% and 71.38 ± 0.80%; with Caco-2 cells (HMZ 20 μM) it was 56.11% and 56.11 ± 1.85%; in the series with Caco-2 cells (HMZ 100 μM), 34.71% and 34.71 ± 1.68%. Also, the IC50 at 24 h in series [3] was 41.5 ± 5.33 mM. For the same compound, in series [3], the IC50 at 48 h worked out at 25.4 ± 3.12 mM.

With `O=Cc1ccc(CO)o1` [HMF, 5-(Hydroxymethyl)-2-furfural], in series [3], the IC50 at 24 h was 35.4 ± 4.03 mM and the IC50 at 48 h worked out at 19.2 ± 2.1 mM.
